The source of these data is patent publication US7964531B2, “3-phenoxy-4-pyridazinol derivatives and herbicidal composition containing the same” (Mitsui Chemicals Agro, Inc., priority 2001, dated 2011).

Common to all, as to assay type: in vivo
Holding throughout (conditions): wettable powder applied 3 days after transplanting, judged after 25 days

One series has as its system Scirpus joncoides. The experiment in a line: Test Example 1: herbicidal effects, paddy-field pot test. An outline of the steps: (§1)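 Scores are growth inhibition ratings from 0 (0–10%) to 5 (91–100%), judged 25 days after a water-diluted wettable powder was applied to flooded pots. Treatment followed transplanting of 2.2-leaf rice by 3 days; weeds were seeded at the soil surface or planted as germinated tubers.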

Another series relates to Cyperus serotinus. The series is described as above. An outline of the steps:
as §1

Series [1] relates to annual broad-leaved weeds (Lindernia spp., Rotala indica). The description is as above. An outline of the steps: as §1
Series [2] has as its system barnyardgrass (Echinochloa oryzicola Vasing.). The series is described as above. An outline of the steps: as §1
Series [3] has as its system transplanted paddy-field rice. As to the kind of experiment: Test Example 1: crop injury against transplanted paddy-field rice. Put shortly: as §1

Take `Cc1ccccc1Oc1nnc(Br)cc1O` [Example 34]: the “Herbicidal effects Scirpus joncoides” value in the series on Scirpus joncoides (chemical dosage 10 g/a) was 2 (Growth inhibition rate; 31 to 50%); in the series on Scirpus joncoides (chemical dosage 20 g/a), 4 (Growth inhibition rate; 71 to 90%). Also, the “Herbicidal effects Cyperus serotinus” value with Cyperus serotinus (chemical dosage 10 g/a) and in the series with Cyperus serotinus (chemical dosage 20 g/a) was 5 (Growth inhibition rate; 91 to 100%) in each case. Besides, the “Herbicidal effects Broad leaf” value in series [1] (chemical dosage 10 g/a) is recorded as 2 (Growth inhibition rate; 31 to 50%); in series [1] (chemical dosage 20 g/a), 4 (Growth inhibition rate; 71 to 90%). In addition, the “Herbicidal effects Barnyard grass” value is given as 1 (Growth inhibition rate; 11 to 30%) in series [2] (chemical dosage 10 g/a) and 2 (Growth inhibition rate; 31 to 50%) in series [2] (chemical dosage 20 g/a). The “Crop injury against transplanted rice” value in series [3] (chemical dosage 10 g/a) and in series [3] (chemical dosage 20 g/a) was 0 (Growth inhibition rate; 0 to 10%) throughout.
Turning to `COc1cccc(F)c1Oc1nnc(Cl)cc1O` [Example 239], the “Herbicidal effects Scirpus joncoides” value in the series on Scirpus joncoides (chemical dosage 20 g/a) is on record as 5 (Growth inhibition rate; 91 to 100%). Further, the “Herbicidal effects Cyperus serotinus” value in the series on Cyperus serotinus (chemical dosage 20 g/a) is 4 (Growth inhibition rate; 71 to 90%). For the same compound, the “Herbicidal effects Broad leaf” value in series [1] (chemical dosage 20 g/a) is reported as 5 (Growth inhibition rate; 91 to 100%). Further, the “Herbicidal effects Barnyard grass” value in series [2] (chemical dosage 20 g/a) was 0 (Growth inhibition rate; 0 to 10%). For the same compound, the “Crop injury against transplanted rice” value in series [3] (chemical dosage 20 g/a) is reported as 0 (Growth inhibition rate; 0 to 10%).
As to `Oc1cc(Cl)nnc1Oc1ccccc1F` [Example 49], the entries for the “Herbicidal effects Scirpus joncoides” value with Scirpus joncoides (chemical dosage 12.5 g/a) and in the series with Scirpus joncoides (chemical dosage 25 g/a) were 3 (Growth inhibition rate; 51 to 70%) and 4 (Growth inhibition rate; 71 to 90%), respectively. Moreover, the “Herbicidal effects Cyperus serotinus” value in the series on Cyperus serotinus (chemical dosage 12.5 g/a) and with Cyperus serotinus (chemical dosage 25 g/a) was 5 (Growth inhibition rate; 91 to 100%) in each case. For the same compound, the “Herbicidal effects Broad leaf” value in series [1] (chemical dosage 12.5 g/a) is recorded as 3 (Growth inhibition rate; 51 to 70%); in series [1] (chemical dosage 25 g/a), 5 (Growth inhibition rate; 91 to 100%). The “Herbicidal effects Barnyard grass” value is listed as 1 (Growth inhibition rate; 11 to 30%) in series [2] (chemical dosage 12.5 g/a) and 2 (Growth inhibition rate; 31 to 50%) in series [2] (chemical dosage 25 g/a). Moreover, the “Crop injury against transplanted rice” value in series [3] (chemical dosage 12.5 g/a) and in series [3] (chemical dosage 25 g/a) was 0 (Growth inhibition rate; 0 to 10%) in each case.
Consider `Cc1ccc(C)c(Oc2nnc(Cl)cc2O)c1Br` [Example 290], for which the “Herbicidal effects Scirpus joncoides” value with Scirpus joncoides (chemical dosage 10 g/a) is listed as 4 (Growth inhibition rate; 71 to 90%). For the same compound, the “Herbicidal effects Cyperus serotinus” value in the series with Cyperus serotinus (chemical dosage 10 g/a) is on record as 5 (Growth inhibition rate; 91 to 100%). The “Herbicidal effects Broad leaf” value in series [1] (chemical dosage 10 g/a) is listed as 5 (Growth inhibition rate; 91 to 100%). In addition, in series [2] (chemical dosage 10 g/a), the “Herbicidal effects Barnyard grass” value is given as 0 (Growth inhibition rate; 0 to 10%). Further, in series [3] (chemical dosage 10 g/a), the “Crop injury against transplanted rice” value is given as 0 (Growth inhibition rate; 0 to 10%).
On to `CCCc1ccccc1Oc1nnc(Cl)cc1O` [Example 56], for which the entries for the “Herbicidal effects Scirpus joncoides” value in the series on Scirpus joncoides (chemical dosage 12.5 g/a) and in the series on Scirpus joncoides (chemical dosage 25 g/a) were 2 (Growth inhibition rate; 31 to 50%) and 3 (Growth inhibition rate; 51 to 70%), respectively. In addition, the “Herbicidal effects Cyperus serotinus” value with Cyperus serotinus (chemical dosage 12.5 g/a) and in the series on Cyperus serotinus (chemical dosage 25 g/a) was 4 (Growth inhibition rate; 71 to 90%) in each case. Further, the “Herbicidal effects Broad leaf” value in series [1] (chemical dosage 12.5 g/a) is 4 (Growth inhibition rate; 71 to 90%); in series [1] (chemical dosage 25 g/a), 5 (Growth inhibition rate; 91 to 100%). For the same compound, the “Herbicidal effects Barnyard grass” value in series [2] (chemical dosage 12.5 g/a) and in series [2] (chemical dosage 25 g/a) was 0 (Growth inhibition rate; 0 to 10%) each time. Also, the “Crop injury against transplanted rice” value in series [3] (chemical dosage 12.5 g/a) and in series [3] (chemical dosage 25 g/a) was 0 (Growth inhibition rate; 0 to 10%) in each case.
Regarding `CC(C)c1cccc(F)c1Oc1nnc(Cl)cc1O` [Example 235], the “Herbicidal effects Scirpus joncoides” value with Scirpus joncoides (chemical dosage 10 g/a) and in the series with Scirpus joncoides (chemical dosage 20 g/a) was 5 (Growth inhibition rate; 91 to 100%) each time. Also, the “Herbicidal effects Cyperus serotinus” value in the series with Cyperus serotinus (chemical dosage 10 g/a) and with Cyperus serotinus (chemical dosage 20 g/a) was 5 (Growth inhibition rate; 91 to 100%) each time. The “Herbicidal effects Broad leaf” value in series [1] (chemical dosage 10 g/a) and in series [1] (chemical dosage 20 g/a) was 5 (Growth inhibition rate; 91 to 100%) throughout. Besides, the “Herbicidal effects Barnyard grass” value in series [2] (chemical dosage 10 g/a) and in series [2] (chemical dosage 20 g/a) was 3 (Growth inhibition rate; 51 to 70%) throughout. For the same compound, the “Crop injury against transplanted rice” value in series [3] (chemical dosage 10 g/a) and in series [3] (chemical dosage 20 g/a) was 0 (Growth inhibition rate; 0 to 10%) throughout.
Turning to `CC(C)c1cccc(C2CC2)c1Oc1nnc(Cl)cc1O` [Example 272], the figures for the “Herbicidal effects Scirpus joncoides” value with Scirpus joncoides (chemical dosage 10 g/a) and with Scirpus joncoides (chemical dosage 20 g/a) were 4 (Growth inhibition rate; 71 to 90%) and 5 (Growth inhibition rate; 91 to 100%), respectively. Moreover, the “Herbicidal effects Cyperus serotinus” value in the series on Cyperus serotinus (chemical dosage 10 g/a) and in the series on Cyperus serotinus (chemical dosage 20 g/a) was 4 (Growth inhibition rate; 71 to 90%) in each case. Moreover, the “Herbicidal effects Broad leaf” value in series [1] (chemical dosage 10 g/a) and in series [1] (chemical dosage 20 g/a) was 5 (Growth inhibition rate; 91 to 100%) in each case. Besides, the “Herbicidal effects Barnyard grass” value in series [2] (chemical dosage 10 g/a) and in series [2] (chemical dosage 20 g/a) was 0 (Growth inhibition rate; 0 to 10%) in each case. The “Crop injury against transplanted rice” value in series [3] (chemical dosage 10 g/a) and in series [3] (chemical dosage 20 g/a) was 0 (Growth inhibition rate; 0 to 10%) each time.
With `CCc1cccc(C2CC2)c1Oc1nnc(Cl)cc1O` [Example 269], the “Herbicidal effects Scirpus joncoides” value in the series on Scirpus joncoides (chemical dosage 10 g/a) and in the series on Scirpus joncoides (chemical dosage 20 g/a) was 5 (Growth inhibition rate; 91 to 100%) in each case. Besides, the “Herbicidal effects Cyperus serotinus” value in the series on Cyperus serotinus (chemical dosage 10 g/a) and in the series on Cyperus serotinus (chemical dosage 20 g/a) was 5 (Growth inhibition rate; 91 to 100%) each time. Moreover, the “Herbicidal effects Broad leaf” value in series [1] (chemical dosage 10 g/a) and in series [1] (chemical dosage 20 g/a) was 5 (Growth inhibition rate; 91 to 100%) in each case. Besides, the “Herbicidal effects Barnyard grass” value in series [2] (chemical dosage 10 g/a) was 2 (Growth inhibition rate; 31 to 50%); in series [2] (chemical dosage 20 g/a), 3 (Growth inhibition rate; 51 to 70%). Also, the “Crop injury against transplanted rice” value in series [3] (chemical dosage 10 g/a) was 3 (Growth inhibition rate; 51 to 70%); in series [3] (chemical dosage 20 g/a), 5 (Growth inhibition rate; 91 to 100%).
As to `CCc1ccc2c(c1Oc1nnc(Cl)cc1O)CCC2` [Example 306], the “Herbicidal effects Scirpus joncoides” value in the series with Scirpus joncoides (chemical dosage 10 g/a) is given as 5 (Growth inhibition rate; 91 to 100%). Also, the “Herbicidal effects Cyperus serotinus” value with Cyperus serotinus (chemical dosage 10 g/a) is given as 5 (Growth inhibition rate; 91 to 100%). Also, the “Herbicidal effects Broad leaf” value in series [1] (chemical dosage 10 g/a) is 5 (Growth inhibition rate; 91 to 100%). Further, in series [2] (chemical dosage 10 g/a), the “Herbicidal effects Barnyard grass” value was 1 (Growth inhibition rate; 11 to 30%). The “Crop injury against transplanted rice” value in series [3] (chemical dosage 10 g/a) is 0 (Growth inhibition rate; 0 to 10%).
As to `Oc1cc(Cl)nnc1Oc1c(C2CC2)ccc2c1CCC2` [Example 307], the “Herbicidal effects Scirpus joncoides” value in the series on Scirpus joncoides (chemical dosage 10 g/a) and in the series on Scirpus joncoides (chemical dosage 20 g/a) was 5 (Growth inhibition rate; 91 to 100%) throughout. The “Herbicidal effects Cyperus serotinus” value in the series with Cyperus serotinus (chemical dosage 10 g/a) and with Cyperus serotinus (chemical dosage 20 g/a) was 5 (Growth inhibition rate; 91 to 100%) in each case. Moreover, the “Herbicidal effects Broad leaf” value in series [1] (chemical dosage 10 g/a) and in series [1] (chemical dosage 20 g/a) was 5 (Growth inhibition rate; 91 to 100%) in each case. In addition, the “Herbicidal effects Barnyard grass” value in series [2] (chemical dosage 10 g/a) is on record as 3 (Growth inhibition rate; 51 to 70%); in series [2] (chemical dosage 20 g/a), 4 (Growth inhibition rate; 71 to 90%). Besides, the “Crop injury against transplanted rice” value in series [3] (chemical dosage 10 g/a) and in series [3] (chemical dosage 20 g/a) was 0 (Growth inhibition rate; 0 to 10%) throughout.
On to `Cc1cc(C)c(C)c(Oc2nnc(Cl)cc2O)c1` [Example 286], for which the “Herbicidal effects Scirpus joncoides” value in the series with Scirpus joncoides (chemical dosage 12.5 g/a) and in the series with Scirpus joncoides (chemical dosage 25 g/a) was 5 (Growth inhibition rate; 91 to 100%) in each case. The “Herbicidal effects Cyperus serotinus” value in the series on Cyperus serotinus (chemical dosage 12.5 g/a) and in the series on Cyperus serotinus (chemical dosage 25 g/a) was 5 (Growth inhibition rate; 91 to 100%) throughout. In addition, the “Herbicidal effects Broad leaf” value in series [1] (chemical dosage 12.5 g/a) and in series [1] (chemical dosage 25 g/a) was 5 (Growth inhibition rate; 91 to 100%) each time. Further, the “Herbicidal effects Barnyard grass” value in series [2] (chemical dosage 12.5 g/a) and in series [2] (chemical dosage 25 g/a) was 0 (Growth inhibition rate; 0 to 10%) each time. Further, the “Crop injury against transplanted rice” value in series [3] (chemical dosage 12.5 g/a) and in series [3] (chemical dosage 25 g/a) was 0 (Growth inhibition rate; 0 to 10%) in each case.
In the case of `Cc1cccc(Oc2nnc(Cl)cc2O)c1C1CC1` [Example 166], the “Herbicidal effects Scirpus joncoides” value with Scirpus joncoides (chemical dosage 10 g/a) and in the series on Scirpus joncoides (chemical dosage 20 g/a) was 5 (Growth inhibition rate; 91 to 100%) throughout. Further, the “Herbicidal effects Cyperus serotinus” value with Cyperus serotinus (chemical dosage 10 g/a) and in the series on Cyperus serotinus (chemical dosage 20 g/a) was 5 (Growth inhibition rate; 91 to 100%) throughout. The “Herbicidal effects Broad leaf” value in series [1] (chemical dosage 10 g/a) and in series [1] (chemical dosage 20 g/a) was 5 (Growth inhibition rate; 91 to 100%) each time. In addition, the “Herbicidal effects Barnyard grass” value in series [2] (chemical dosage 10 g/a) is on record as 0 (Growth inhibition rate; 0 to 10%); in series [2] (chemical dosage 20 g/a), 1 (Growth inhibition rate; 11 to 30%). Moreover, the “Crop injury against transplanted rice” value in series [3] (chemical dosage 10 g/a) and in series [3] (chemical dosage 20 g/a) was 0 (Growth inhibition rate; 0 to 10%) throughout.
